Earlier results, collected in patent US9169190B2, “Methods for making retinoids and uses thereof” (The UAB Research Foundation, priority 2004, dated 2015).

Key:
[1] = system: MNU-induced mammary cancers; settings: added to the diet of rats
[2] = system: mammary cancers; settings: compared with 9cRA
[3] = system: juvenile myelomonocytic leukemia (JMML); settings: children with JMML
[4] = system: acute promyelocytic leukemia (APL); settings: patients with APL

CC1=C(/C=C/C(C)=C\C=C\C(C)=C\C(=O)O)C(C)(C)CCC1 [9cRA]
reduction of the number of MNU-induced mammary cancers [1]: 92%

CC(=C/C=C/C(C)=C/C(=O)O)/C=C1\CCCc2ccccc21 [9cUAB30]
chemopreventive efficacy of mammary cancers relative to 9cRA [2]: comparable
toxicity relative to 9cRA [2]: less toxic

CC1=C(/C=C/C(C)=C/C=C/C(C)=C\C(=O)O)C(C)(C)CCC1 [(13Z)-RA]
children in whom excessive myeloproliferation is effectively controlled [3]: up to 50%

CC1=C(/C=C/C(C)=C/C=C/C(C)=C/C(=O)O)C(C)(C)CCC1 [(all-E)-RA, All-trans-retinoic acid]
complete remission rate [4]: 90%
